Structures can show the parent of a compound that is named as a salt.
What was measured:
[1] = cited from earlier work; for oral bioavailability of acyclovir: oral administration
[2] = cited from earlier work
[3] = Drug loading into ion exchange resin, evaluated spectrophotometrically; format: physicochemical; settings: for % w/w unbound drug: resin not named
Experimental: Mediums of different pH were examined in order to achieve the maximum drug loading into the resin. For this reason, the pH of solutions was adjusted at 3, 4, 5, 6, and 7. The drug loaded was evaluated spectrophotometrically. […] Buffer pH=7 enhanced more the effect of drug loading.
The next step was to examine the effect of drug loading into the resin for buffer pH=7 of different ion strength. For this reason, buffer pH=7 of normality 0.1N, 0.2N, 1N were prepared and the drug loaded was evaluated spectrophotometrically as before. Buffer pH=7 0.2N was the most suitable medium as the higher drug loading was reached. (61.60%±2.05%).
At this point of studies, the research focused on the type of IER. For this reason, resins of different functional group were examined to reach the higher drug loading. […] As a result, Purolite C100CaMR and Indion 204 were the most preferred resins that could form hydrogen bonds with the cationic center of Valaciclovir and prevent the release in saliva.

Nc1nc2c(ncn2COCCO)c(=O)[nH]1 [acyclovir]
water solubility ([1]; in vivo): poorly water soluble
oral bioavailability of acyclovir [1]: poor oral bioavailability

CC(C)[C@H](N)C(=O)OCCOCn1cnc2c(=O)[nH]c(N)nc21 [Valaciclovir hydrochloride, L-valine, 2-[(2-amino-1,6-dihydro-6-oxo-9H-purin-9-yl)methoxy] ethyl ester, mono hydrochloride]
solubility in dichloromethane ([2]; dichloromethane): insoluble
solubility in water ([2]; water): soluble
absorption from the gastrointestinal tract ([1]; after oral administration): rapidly absorbed
conversion to acyclovir and L-valine ([1]; first-pass intestinal and/or hepatic metabolism): nearly completely converted
drug loading ([3]; Buffer pH=7 0.2N): 61.60%±2.05%
% w/w unbound drug ([3]; medium pH 3): 79.85%±2.19%
% w/w unbound drug ([3]; medium pH 4): 75.24%±2.91%
% w/w unbound drug ([3]; medium pH 5): 66.69%±2.76%
% w/w unbound drug ([3]; medium pH 6): 61.19%±2.61%
% w/w unbound drug ([3]; medium pH 7): 30.91%±2.53%
% w/w unbound drug ([3]; water): 72.61%±2.81%

CC(C)[C@H](N)C(=O)OCCOCn1cnc2c(=O)[nH]c(N)nc21 [Valaciclovir, L-valyl acyclovir]
oral bioavailability of acyclovir [1]: high bioavailability of acyclovir

From patent US20170202844A1, “PEDIATRIC CHEWABLE TABLET CONTAINING ANTIVIRAL AGENT AND METHOD FOR THE PREPARATION THEREOF” (PHARMATHEN S.A., priority 2014, published 2017)
